Like-named read-outs stand apart in the source and are kept apart here.
Legend:
Assay in all cases: cell-based
H2R [1] = molecular target: T1, H2R (Homo sapiens, UniProt P25021); parameters: species or system HEK293T; settings: HEK-293T; read-out: Mini G Protein Recruitment / Emax [%]
T1 construct: gene HRH2; full receptor, C-terminal NlucC tag (11 aa split-NanoLuc fragment); co-expressed with NlucN-mGs (mini-Gs393) in HEK293T

H1R [2] = molecular target: T2, H1R (Homo sapiens, UniProt P35367); parameters: gene HRH1; full receptor, C-terminal NlucC tag (11 aa split-NanoLuc fragment); co-expressed with NlucN-mGsq (mini-Gs/q71) in HEK293T; species or system HEK293T; settings: HEK-293T, read-out: Mini G Protein Recruitment / Emax [%]
T2 sequence (P35367 whole entry, the tested form may be a part): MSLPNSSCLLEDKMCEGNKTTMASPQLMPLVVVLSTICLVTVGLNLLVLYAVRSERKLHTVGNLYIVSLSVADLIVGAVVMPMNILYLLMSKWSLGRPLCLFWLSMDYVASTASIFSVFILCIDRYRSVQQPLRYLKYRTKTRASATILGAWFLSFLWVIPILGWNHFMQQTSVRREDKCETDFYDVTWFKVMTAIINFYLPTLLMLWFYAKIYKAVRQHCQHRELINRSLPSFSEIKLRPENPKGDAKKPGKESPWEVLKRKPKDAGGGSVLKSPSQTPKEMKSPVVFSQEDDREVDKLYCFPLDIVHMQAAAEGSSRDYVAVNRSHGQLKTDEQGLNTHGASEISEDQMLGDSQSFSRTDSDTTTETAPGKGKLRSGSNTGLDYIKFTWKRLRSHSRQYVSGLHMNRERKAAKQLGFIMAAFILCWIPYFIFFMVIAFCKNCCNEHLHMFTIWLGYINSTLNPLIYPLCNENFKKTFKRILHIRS

H2R [3] = molecular target: T1, H2R; parameters: species or system HEK293T; settings: HEK-293T; read-out: Mini G Protein Recruitment / Emax [%]; remark: listed apart in the source
H1R [4] = molecular target: T2, H1R; parameters: gene HRH1; settings: HEK-293T, read-out: Mini G Protein Recruitment / Emax [%]

T1 sequence (P25021 whole entry, the tested form may be a part): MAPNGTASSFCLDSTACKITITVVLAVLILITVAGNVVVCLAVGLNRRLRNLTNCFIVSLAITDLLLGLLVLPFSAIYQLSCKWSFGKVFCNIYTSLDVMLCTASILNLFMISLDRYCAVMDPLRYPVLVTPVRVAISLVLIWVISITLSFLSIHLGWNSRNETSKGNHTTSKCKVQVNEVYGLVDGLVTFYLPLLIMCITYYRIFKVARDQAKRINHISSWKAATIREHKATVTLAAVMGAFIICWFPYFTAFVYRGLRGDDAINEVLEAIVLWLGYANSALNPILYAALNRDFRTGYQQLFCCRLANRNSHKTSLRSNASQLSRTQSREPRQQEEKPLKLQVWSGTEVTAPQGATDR

SMILES | Emax (H2R [1]) | Emax (H1R [2]) | Emax (H2R [3]) | also measured
Cc1[nH]cnc1CCN [4mhis, 4-methylhistamine] | 93 ± 2.2% | 44 ± 2.4% | – | –
CNCCc1cnc[nH]1 [Namh, N^α-methylhistamine] | 93 ± 1.7% | 99 ± 2% | – | –
CCC(=O)NC(N)=NCCCc1cnc[nH]1 [PI294, UR-PI294] | 95 ± 1.1% | 29 ± 1.4% | – | –
Cc1nc(N)sc1CCN [amt, amthamine] | 105 ± 2.8% | – | – | –
CN=C(NC#N)NCCSCc1nc[nH]c1C [cim, cimetidine] | – | – | -8 ± 0.8% | –
CN(C)CCCSC(=N)N [dim, dimaprit] | 94 ± 2.6% | – | – | –
NC(N)=Nc1nc(CSCCC(N)=NS(N)(=O)=O)cs1 [fam, famotidine] | – | – | -9 ± 0.7% | –
NCCc1c[nH]cn1 [his, histamine] | – | – | 100% | Emax (H1R [4]): 100%
NCCc1c[nH]c(CCC(c2ccccc2)c2ccccc2)n1 [histapro, histaprodifen] | – | 33 ± 2% | – | –
Cc1[nH]cnc1CSCCNC(=N)NCCCc1c[nH]cn1 [impro, impromidine] | 90 ± 1.5% | – | – | –
CNC(=C[N+](=O)[O-])NCCSCc1ccc(CN(C)C)o1 [ran, ranitidine] | – | – | -8 ± 0.7% | –
c1ccc(C(CCc2nc(CCNCCc3c[nH]cn3)c[nH]2)c2ccccc2)cc1 [suprahis, suprahistaprodifen] | – | 49 ± 3.7% | – | –

From article PMC7698210 (International Journal of Molecular Sciences, 2020)
